Results on eleven molecules are retold here after ChEMBL document CHEMBL1201862, “PubChem BioAssay data set” (2004).

The structures appear in SMILES notation.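 Cells were grown in 96-well plates and exposed to each compound for 48 hours at five concentrations; endpoints were interpolated linearly between bracketing concentrations, or set to the highest concentration if not reached. GI50 marks 50% less growth.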 Activity calls are given as the source filed them. Cut-off read from the data, not from the text of the source: active = GI50 up to about 1.1 µM and inactive = higher. A value given as a limit tells only on which side of the number the result lay.

Holding throughout (assay): NCI-60 cell line screen, 48 h
The test system of experiment [1] is KM-20L2.
Experiment [2] has as its system LXFL 529.
In experiment [3] the test system is RXF 631.
Experiment [4] has as its system DLD-1.
For experiment [5], the system named is DMS-273.
The test system of experiment [6] is XF498.
For experiment [7], the system named is HOP-18.
Experiment [8] relates to M19-MEL.
The test system of experiment [9] is DMS-114.

Take `Cc1ccc(-c2c(N)[n+]([O-])c3ccccc3[n+]2[O-])cc1`: the GI50 in experiment [1] was 15 µM (inactive); in [2], 5.81 µM (inactive); in [3] it was 1.65 µM (inactive); in experiment [4], 13.1 µM (inactive); in experiment [5] it was 13.4 µM (inactive); in [6], 3.71 µM (inactive). Further, the figures for the GI50 in experiment [7] and in experiment [8] were 15.7 µM (inactive) and 11.7 µM (inactive), respectively.
With `O=C(O)CCSC(=O)Nc1ccccc1Cl`, the GI50 in experiment [1], in [2], in [3], in [4], in [9] and in experiment [5] was > 100 µM (inactive) each time. Besides, the GI50 in experiment [6], in [7] and in experiment [8] was > 100 µM (inactive) throughout.
As for `CCOC(=O)C(C(=O)OCC)=C1N[C@H](C(=O)OCC)CS1`, the GI50 in experiment [1], in experiment [2], in [3], in experiment [4], in experiment [6] and in experiment [7] was > 100 µM (inactive) throughout. The GI50 in experiment [8] was > 100 µM (inactive).
With `COc1cccc2c1OC1Sc3ccccc3-c3nn(-c4ccccc4)c-2c31` (stereo not given), the GI50 in [1], in [2], in experiment [3], in [4], in experiment [9] and in [5] was > 100 µM (inactive) each time. The GI50 in experiment [6], in experiment [7] and in [8] was > 100 µM (inactive) each time.
Turning to `CC1=C(c2cc(C(=O)Nc3nccs3)nc(NC#N)n2)Sc2ccccc2N1`, the GI50 in experiment [1], in experiment [2], in experiment [3], in experiment [4], in experiment [5] and in [6] was > 100 µM (inactive) each time. Moreover, the GI50 in experiment [7] and in [8] was > 100 µM (inactive) throughout.
`Cn1c(=O)c2c3oc(=O)cc(O)c3c(=O)n3c4ccccc4n(c1=O)c23`: the GI50 was 34.8 µM (inactive) in experiment [2]; 46.6 µM (inactive) in [3]; 35.8 µM (inactive) in experiment [4]; 31.5 µM (inactive) in [5]; 23.8 µM (inactive) in experiment [6]; 36.5 µM (inactive) in experiment [7]. Besides, the GI50 in [8] is 38.9 µM (inactive).
For `C/C(CC(=O)Nc1ccc(NC(=O)C/C(C)=N\NC(N)=O)cc1)=N/NC(N)=O`, the GI50 was > 100 µM (inactive) in experiment [1]; 65.9 µM (inactive) in experiment [2]; 33 µM (inactive) in [3]; > 45.2 µM (inactive) in [4]; > 35.6 µM (inactive) in experiment [9]; > 37.1 µM (inactive) in experiment [5]. The GI50 in experiment [6] is > 92.3 µM (inactive); in [7], 63 µM (inactive); in experiment [8] it was > 100 µM (inactive).
As for `O=[N+]([O-])C1C2C=CC(C2)[C@H]1c1ccccc1Cl` (stereo not given in full), the GI50 in [1] was > 100 µM (inactive); in experiment [2] it was 75 µM (inactive); in [3], 76.2 µM (inactive); in experiment [4], 83.6 µM (inactive); in [5], > 100 µM (inactive); in [6], > 77.1 µM (inactive). For the same molecule, the GI50 in [7] was > 100 µM (inactive).
Regarding `O=C(NC(=O)c1ccccc1[N+](=O)[O-])Nc1ccc(Oc2ncc(Br)cn2)c(Cl)c1`, the GI50 in [1] was 0.022 µM (active); in experiment [2], 0.0302 µM (active); in experiment [3], 0.0284 µM (active); in experiment [4] it was 0.0148 µM (active); in experiment [9], < 0.0184 µM (active); in experiment [5], 0.0165 µM (active). Further, the GI50 in [6] is 0.00723 µM (active); in [7], 0.064 µM (active); in [8], 0.0196 µM (active).
Take `COC(=O)C1=CC2OC13CC1CCC3(C2=O)C1(C)C` (stereo not given): the GI50 in experiment [1] was 13.3 µM (inactive); in [2], 4.49 µM (inactive); in [3], 13.9 µM (inactive); in experiment [9], 7.29 µM (inactive); in experiment [5] it was 11.2 µM (inactive); in experiment [6], 3.77 µM (inactive). Also, the GI50 in experiment [7] was 6.46 µM (inactive); in experiment [8] it was 11.5 µM (inactive).
On to `COC(=O)C1=CC2C(=O)OC1C1C(=O)NC(=O)C21` (stereo not given), for which the GI50 in experiment [1], in [2], in [3], in experiment [4], in experiment [9] and in experiment [5] was > 100 µM (inactive) each time. Moreover, the GI50 in [6], in experiment [7] and in experiment [8] was > 100 µM (inactive) each time.
